# Laboratory results as given in paper PMC5240995, “Lysine Decarboxylase with an Enhanced Affinity for Pyridoxal 5-Phosphate by Disulfide Bond-Mediated Spatial Reconstitution” (PLoS ONE, 2017).
# Molecular target: T1, SrLDC (Pseudoselenomonas ruminantium, UniProt O50657, A225C/T302C)
# T1 construct: gene ldc
# Experiment: isothermal titration calorimetry
# Format: binding
# T1 sequence (O50657 whole entry A225C/T302C): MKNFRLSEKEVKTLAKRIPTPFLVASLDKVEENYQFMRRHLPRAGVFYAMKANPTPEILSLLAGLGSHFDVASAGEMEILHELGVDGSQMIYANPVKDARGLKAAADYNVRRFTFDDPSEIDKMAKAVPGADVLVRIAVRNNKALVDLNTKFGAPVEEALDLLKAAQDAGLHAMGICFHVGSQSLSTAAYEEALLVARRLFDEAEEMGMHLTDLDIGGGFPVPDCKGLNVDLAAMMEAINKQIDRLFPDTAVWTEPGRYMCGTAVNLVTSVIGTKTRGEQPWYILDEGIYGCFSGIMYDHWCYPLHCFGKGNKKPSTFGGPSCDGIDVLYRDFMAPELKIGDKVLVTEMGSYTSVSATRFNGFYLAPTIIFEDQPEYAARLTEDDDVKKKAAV
structure (smiles),measurement,value
Cc1ncc(COP(=O)(O)O)c(C=O)c1O [pyridoxal 5-phosphate],Kd,21 µM
